Measurements published in publication PMC6458159, “Mechanisms of redundancy and specificity of the Aspergillus fumigatus Crh transglycosylases” (Nature Communications, 2019).

Target: T1, AfCrh5 (Aspergillus fumigatus, UniProt Q8J0P4)
T1 construct: gene crh5; GST cleaved off by PreScission, N-terminal His6 kept; E. coli BL21(DE3) pLysS
T1 sequence (Q8J0P4 22-275): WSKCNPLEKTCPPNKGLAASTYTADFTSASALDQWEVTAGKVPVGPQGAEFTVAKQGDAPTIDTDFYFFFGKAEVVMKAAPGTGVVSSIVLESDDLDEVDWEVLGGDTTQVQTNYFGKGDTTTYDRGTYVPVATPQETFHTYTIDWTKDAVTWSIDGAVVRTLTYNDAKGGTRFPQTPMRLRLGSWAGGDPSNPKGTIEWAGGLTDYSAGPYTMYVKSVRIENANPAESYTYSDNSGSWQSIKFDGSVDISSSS
Test: fluorescent transglycosylation filter-paper assay
Assay type: biochemical
Conditions: acceptor; donor carboxymethyl-chitin; 50 mM citrate pH 4.9, 37 °C; labelled compound
Source text: fluorescent transglycosylation filter-paper assay on AfCrh5

Substance	Km
SR-labelled chitopentaose [CH5-SR]	3.5 ± 0.4 µM
SR-labelled laminaripentaose [L5-SR]	12 ± 3 µM
